Measured values: a melting point compilation (Tetko et al.; mined from patent text by program, amines drawn as free bases though some values may be those of a salt)

| Structure (SMILES) | melting point |
| --- | --- |
| CN1CCN(C2=Nc3cc(Cl)c(Cl)cc3Nc3nn(C)nc32)CC1 | 218 °C |
| Cc1cc(=O)n(C)c2ccc(C3=NNC(=O)CC3CO)cc12 (centres undefined) | 222 to 223 °C |
| Cc1ccc2c(c1)c1cc(C(=O)O)sc1n2C | 216 to 219 °C |
| COc1ccc2c(=O)c(-c3ccccc3)c(SCc3ccccn3)oc2c1 | 168 to 169 °C |
| CCCCC(=O)OC1(C(=O)CO)CCC2C3CC(C)C4=CC(=O)CCC4(C)C3C(O)CC21C (centres undefined) | 160 °C |
| COc1cc(Nc2c(C#N)cnc3cc(C#Cc4ccccn4)sc23)c(Cl)cc1Cl | 237 to 239 °C |
| C=CCc1cc(C(=O)c2ccnn2C)c(Cl)c(Cl)c1O | 141 to 143 °C |
| CSc1cc(C)nc(SC)c1NC(=O)CBr | 171 to 172 °C |
| CCCCCS(=O)(=O)NC(=O)CCc1cc(OC(C)C)nn1Cc1ccc(C(F)(F)F)cc1Cl | 147 to 149 °C |
| CCCc1cc(Cl)c2oc(Cc3ccc(OC)cc3)c(C)c2c1OC(C)=O | 119 to 120 °C |
| CS(=O)(=O)Nc1cc2c(c(C(=O)O)c1)NCCC2 | 244 °C |
| Nc1ccc(C(=O)O)c2c1OCCO2 | 186 °C |
| COC(=O)c1ccc(NN)c(Cl)c1 | 120 °C |
| CSc1cc2ccc(-c3ccccc3)cc2cc1O | 149 to 150 °C |
| NC(=O)c1cnn2c(-c3ccccc3)ccnc12 | 236 to 238 °C |
| CCOc1ccc2c(c1O)CCN(C(C)=O)[C@@H]2c1cc(Cl)cc(Cl)c1 | 238 to 241 °C |
| C[Si](C)(C)OC1(c2ccccc2F)C(=O)Nc2ccc(Cl)cc21 (centres undefined) | 125 to 127 °C |
| CCC1c2ccc(C#N)n2-c2cc(F)c(F)cc2N1S(=O)(=O)c1ccc(OC)c(C)c1 (centres undefined) | 153 to 155 °C |
| O=c1cc(N2CCOc3ccccc32)oc2c1ccc1ccccc12 | 78 to 79 °C |
| Cc1ccc(N(c2ccc(C)cc2)c2ccc(C=Cc3ccccc3O)cc2)cc1 | 136 to 138 °C |
| Cc1cc(C)c(Nc2nc(C)ncc2S(=O)(=O)c2ccc(-c3cncnc3)cc2)c(C)c1 | 210 to 212 °C |
| CCCCCCCCc1ccc(C(O)CCCCCC(=O)OC)cc1 (centres undefined) | 49 to 50 °C |
| O=C(O)c1cccc2c1CCc1cc(O)ccc1S2 | 210 to 211 °C |
| CCCn1ncc2c(=O)[nH]c(-c3cc(C(=O)CN4CCOCC4)ccc3OCC)nc21 | 160 to 162 °C |
| Cc1sc(N)c(C(=O)c2ccsc2)c1C | 122 to 123 °C |
| O=C(NCCN1CCOCC1)c1ccc(Cl)cc1 | 120 to 121 °C |

| Structure (SMILES) | melting point |
| --- | --- |
| C=Cc1cc(Cl)c(N)c(Cl)c1 | 63 °C |
| CCN(C)C(=O)C1=CC(C)(C)Oc2ccc([N+](=O)[O-])cc21 | 121 to 124 °C |
| N#CC(=NO)C(=O)NC(=O)NCCCCCC(N)=O | 187 to 189 °C |
| Nc1ncnc2c1c(-c1cccc(O)c1)cn2C1CC(CN2CCCC2)C1 (centres undefined) | 193 to 194 °C |
| CNc1c([N+](=O)[O-])ccc(Cl)c1C#N | 167 to 170 °C |
| N#CC1CN1C(=O)CNC=O (centres undefined) | 51 to 56 °C |
| CCOCN1C(C)=C(C(=O)O)C(c2cccc([N+](=O)[O-])c2)C(C(=O)O)=C1C | 175 to 176 °C |
| CCOC(=O)c1nc(-c2nccs2)cs1 | 143 to 145 °C |
| Cn1ccnc1-c1ccc(OCC(O)CNCCOc2ccc(O)c(C(N)=O)c2)cc1 (centres undefined) | 108 to 112 °C |
| Cc1nc2cc3c(nc2o1)C(=O)OC3=O | 194 to 196 °C |
| O=C1N(Cc2ccc(C(F)(F)F)o2)c2ccccc2C12COc1cc3c(cc12)OCCO3 (centres undefined) | 53 to 56 °C |
| CCN(CC)C(=O)c1ccc(C(=C2CCN(Cc3ccccc3)CC2)c2cccc(OC)c2)cc1 | 100 to 110 °C |
| CCOc1ccc(-c2nc(-c3ccc(OC4OC(CO)C(O)C(O)C4O)cc3)cs2)cc1OCC (centres undefined) | 138 to 140 °C |
| CC(C(=O)NC1CCCCC1)N1CCN(c2ccccn2)CC1 (centres undefined) | 126 to 128 °C |
| CS(=O)(=O)c1ccc(C2=NN(S(=O)(=O)c3ccc(I)cc3)CCC2)cc1 | 198 to 204 °C |
| Cc1ccc(C(C)N(O)C(N)=O)cc1 (centres undefined) | 134 to 135 °C |
| COC(=O)c1cccc(-c2cccc(Oc3ccc(Cl)c(Cl)c3)n2)c1 | 133 to 134 °C |
| CN1C(=O)C(=Cc2ccc(O)c(C(C)(C)C)c2)SC1=S | > 230 °C |
| Nc1nc(O)c2c(n1)NCC(CCc1ccc(C(=O)N[C@@H](CCC(=O)O)C(=O)O)[nH]1)C2 (some centres undefined) | > 260 °C |
| O=C(O)C1CCCc2c(OCc3ccccc3)cccc21 (centres undefined) | 145 to 146 °C |
| O=C1c2cccc3cc4ccccc4c(c23)C(=O)N1CCCNCCN1C(=O)c2cccc3cc4ccccc4c(c23)C1=O | 260 °C |
| Cc1ccc(CN2CCC(O)CC2)cc1 | 72 to 74 °C |
| COc1ccc(-c2[nH]nc3c2C(=O)c2c(NC(=O)NNC(=O)c4ccc(N)cc4)cccc2-3)cc1 | 247 °C |
| O=S(=O)(c1ccccc1)c1cc2cc(Cl)ccc2[nH]1 | 137 to 138 °C |
| O=C(O)CCN1CCN(Cc2ccccc2)CC1 | 165 to 166 °C |
| CNC(=O)c1ccc(C)c(-n2c(C)cc(OCc3ccccc3CNC(=O)Nc3cc(C(C)(C)C)nn3-c3ccc(Cl)c(O)c3)c(Cl)c2=O)c1 | 201 to 203 °C |

| Structure (SMILES) | melting point |
| --- | --- |
| Cc1nc(-c2ccc(N3CC(C(=O)O)OC3=O)cc2)no1 (centres undefined) | 215 to 218 °C |
| CCOC(=O)c1ccc(C(F)(F)F)c(N)c1 | 38 to 39 °C |
| COc1nc(NCn2nnc3ccccc32)nc(N(C)C)n1 | 222 to 224 °C |
| OCCc1nccn1CCCc1ccc(OCc2ccccc2)cc1 | 80 to 82 °C |
| COc1cccc(CCC(C(=O)c2ccc(O)cc2)c2ccccc2)c1 (centres undefined) | 125 to 129 °C |
| CCc1cc(C(C)=O)c(O)cc1OCc1ccc(C(=O)O)c(O)c1 | 214 to 216 °C |
| Nc1cccc(CCN2CCN(c3nsc4ccccc34)CC2)c1 | 108 °C |
| O=C(O)c1cc(NCc2c(F)c(F)c(C(F)(F)F)c(F)c2F)ccc1OC(F)(F)F | 38 °C |
| Cc1cc(-c2ccc(O)cc2)ccc1C=O | 161 to 162 °C |
| CC(C=O)n1nnc2ccc(Oc3cc(F)c(C(F)(F)F)c(Cl)c3)cc21 (centres undefined) | 107 to 108 °C |
| Cc1onc(-c2ccccc2)c1-c1ccccc1 | 95.5 to 96.2 °C |
| COc1ccc2c(c1)c(-c1cc3c(C(=O)N4CCOCC4)ccnc3[nH]1)cn2C | 259 to 260 °C |
| COc1ccccc1-c1cc2c(ccn2C)c2c1C(=O)NC2=O | 243 to 245 °C |
| COC(=O)c1cccc(CC(C)NCC(O)c2ccc(O)c(CO)c2)c1 (centres undefined) | 60 to 70 °C |
| CC(C)(C)N(NC(=O)c1ccccc1)C(=O)c1cccs1 | > 200 °C |
| N#Cc1cccc(-c2ccc3c(Cl)cnc(NC(=N)N)c3c2)c1 | > 300 °C |
| O=C1CCCCCN1C(=O)c1ccccc1 | 69 °C |
| COc1ccc(Cn2c(=O)oc(=O)c3ccccc32)cc1 | 143 °C |
| CCOC(=O)COC(=O)CN1CCCCCC1=O | 33.5 to 35 °C |
| Cc1ccc(-c2[nH]c(-c3cccc4ccccc34)nc2C(=O)Nc2nccs2)cc1 | 228 to 229 °C |
| COC(=O)C(C)(C)C(=O)c1ccc(-n2cncn2)cc1 | 84 to 85 °C |
| COCCCCOc1ccc(OCc2ccccc2)cc1 | 60 to 61 °C |
| CC(C)(C)c1cc(CCc2ccccc2NC(=O)NC2CCN(Cc3ccncc3)CC2)cc(C(C)(C)C)c1O | 156 to 158 °C |
| Cc1cc(Cl)nc2nc(N3C(=O)c4ccccc4C3CC(=O)N3CCC4(CC3)OCCO4)ccc12 (centres undefined) | 259 to 262 °C |
| FC(F)(F)c1cc(Cl)nc2[nH]ncc12 | 112 °C |
| C=CCN1C(C)(C)CC(=C2CC(C)(C)N(CC=C)C(C)(C)C2)CC1(C)C | 147 to 148 °C |

| Structure (SMILES) | melting point |
| --- | --- |
| O=S(=O)(c1ccccc1)c1cncc(OC2SCC(O)C(O)C2O)c1 (centres undefined) | 86 °C |
| Cc1nc2c(-c3ccc(-c4ccccc4)cc3)nc3ccc(F)cc3c2c(=O)o1 | 188 to 189 °C |
| Nc1cc(-c2nc(-c3ccco3)no2)ccc1Cl | 203 to 204 °C |
| CCC(C)Nc1c(-c2ccc(OC)cc2Cl)c(Cl)nc2ncnn12 (centres undefined) | 116 °C |
| COC(=O)CCn1cc(Cc2cccnc2)c2c(CCC(=O)OC(C)(C)C)cccc21 | 80 to 82 °C |
| Cc1cn(C2CC(N=[N+]=[N-])C(C(O)S(C)(=O)=O)O2)c(=O)n(C(=O)c2ccccc2)c1=O (centres undefined) | 86 to 88 °C |
| O=C(O)c1ccc(OCCCC2CCN(c3ccc(Cl)nn3)CC2)cc1 | 209 °C |
| COC(=O)c1cn2c(-c3ccc(-c4ccccc4)cc3)csc2n1 | 186 to 188 °C |
| O=C1CC(CCCl)c2ccccc2N1 (centres undefined) | 112 to 113 °C |
| O=C(O)COC(c1ccc(Cl)cc1)c1ccc(Cl)cc1 | 108 to 110 °C |
| CCCNC(=O)Nc1ccc2c(c1)NC(=O)C2(C)C | 223 to 225 °C |
| Cc1cnc(Cl)c(C(=O)N(C)C)c1 | 117 to 119 °C |
| CCOC(=O)c1cn2c3c(ccc(Cl)c3c1=O)OCC2C (centres undefined) | 205 to 206 °C |
| O=C(O)c1cccc2c1CCCC2O (centres undefined) | 160 to 162 °C |
| O=[N+]([O-])C=C1NCCN1Cc1ccc(OCC(F)(F)F)nc1 | 132 to 135 °C |
| CC(=O)OC1CCC2C3C(Sc4ccc(O)cc4)C(=O)c4cc(O)ccc4C3CCC12C (centres undefined) | 150 to 155 °C |
| COC(=O)c1c(-c2ccc(OC)cc2)ccc2ccccc12 | 115 to 116 °C |
| COc1ccc2c(c1)CCC1C2CCC2(CC(C)C)C(O)CCC12 (centres undefined) | 103 to 104 °C |
| O=C(NCC12CC3CC(CC(C3)C1)C2)c1c(Cl)ccc2nc(N3C[C@@H]4C(C(=O)O)[C@@H]4C3)ccc12 (some centres undefined) | 175 to 180 °C |
| CC(C)=CCCC(C)=CCOc1ccc(C(=O)NCC(=O)Nc2ccccn2)cc1 | 105 to 106 °C |
| O=C(c1cc(-c2ccccc2)c(=O)n2c1-c1sccc1C2)N1CCOCC1 | 225 to 227 °C |
| Nc1ccc(C(=S)OC2CCCCC2)c(Cl)c1 | 97 to 100 °C |
| NC(=O)c1c(O)cccc1OCCBr | 120 to 121 °C |
| O=C(O)c1cc2ccc(Cl)cc2[nH]c1=O | 317 to 318 °C |
| CCOC(=O)c1ccn2nc(-c3ccccc3)cc2n1 | 180 to 181 °C |
| COc1cc2c(cc1OC)-c1ccc(OC)c(OC)c1C2=O | 208 to 209 °C |
